# In patent US20120015344A1, “Methods, compositions, and apparatus for the detection of viral strains” (priority 2010, published 2012):
# Where “and” joins values, the source holds several entries; their conditions need not be identical. Equal entries are not always repeated. Entries after “also recorded” stand apart in the source; their conditions may differ. Where two headings read alike, the source gives them in different places. Marks after values point to notes of the source that are not given here.
# Legend:
# [1] = tested on: H5 Hemagglutinin (HA) Protein from Influenza Virus, A/Vietnam/1203/04 (H5N1); assay type: binding, Influenza A virus H5N1 (A/Vietnam/1203/04)
# H5N1 = details: cited from earlier work
# [2] = target: T1, H1 hemagglutinin (HA) protein, A/South Carolina/1/18 (H1N1) (Influenza A virus, UniProt Q9WFX3); assay type: binding, Influenza A virus H1N1 (A/South Carolina/1/18)
# T1 sequence (Q9WFX3 18-566 limits assumed): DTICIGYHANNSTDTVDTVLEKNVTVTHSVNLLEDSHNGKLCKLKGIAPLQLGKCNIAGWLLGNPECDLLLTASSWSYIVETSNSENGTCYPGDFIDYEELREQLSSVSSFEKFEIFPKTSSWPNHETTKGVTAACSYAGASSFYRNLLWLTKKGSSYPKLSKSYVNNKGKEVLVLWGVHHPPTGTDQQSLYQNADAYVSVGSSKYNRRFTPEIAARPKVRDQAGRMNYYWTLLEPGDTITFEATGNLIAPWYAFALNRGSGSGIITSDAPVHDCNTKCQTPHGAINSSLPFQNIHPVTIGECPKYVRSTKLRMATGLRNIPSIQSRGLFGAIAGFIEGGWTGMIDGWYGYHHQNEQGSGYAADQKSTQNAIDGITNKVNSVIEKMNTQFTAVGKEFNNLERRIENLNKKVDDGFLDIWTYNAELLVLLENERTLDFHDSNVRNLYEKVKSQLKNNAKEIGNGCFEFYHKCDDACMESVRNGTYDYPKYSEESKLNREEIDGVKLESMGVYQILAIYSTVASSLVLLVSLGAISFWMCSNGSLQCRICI
# [3] = tested on: H5 Hemagglutinin (HA) Protein from Influenza Virus, A/Vietnam/1203/04 (H5N1); assay type: binding, Influenza A virus H5N1 (A/Vietnam/1203/04); remark: listed apart in the source
# [4] = target: T1, H1 hemagglutinin (HA) protein, A/South Carolina/1/18 (H1N1); assay type: binding, Influenza A virus H1N1 (A/South Carolina/1/18); remark: listed apart in the source
substance,measurement,setting,value
Neu5Acα2-3Galβ1-4GlcNAcβ-SpNH-LC-LC-Biotin [3′SLN],"binding between H5 and glycan (avidity, from ΔQ)",[1],statistically higher avidity; also recorded: high avidity of binding
same,Predicted to Bind H5N1,H5N1,Yes
Neu5Acα2-3Galβ1-4[Fucα1-3]GlcNAcβ-SpNH-LC-LC-Biotin [3′SLe^x],Mean ΔQ ± S.D. (n = 3),[2],0.08906 ± 0.0045^b mC and 0.1186 ± 0.0180^b mC
same,"binding between H5 and glycan (avidity, from ΔQ)",[3],high avidity of binding
same,Mean ΔQ ± S.D. (n = 3),[4],0.2259 ± 0.0115^f mC and 0.2974 ± 0.0001^f mC
same,Predicted to Bind H5N1,H5N1,Yes
Neu5Acα2-3[GalNAcβ1-4]Galβ1-4GlcNAcβ-SpNH-LC-LC-Biotin [CT/Sda],Predicted to Bind H5N1,H5N1,No
Neu5Acα2-3[Galβ1-4GlcNAcβ1-3]2β-SpNH-LC-LC-Biotin [3′S-Di-LN],Predicted to Bind H5N1,H5N1,Yes
Neu5Acα2-6Galβ1-4GlcNAcβ-SpNH-LC-LC-Biotin [6′SLN],Mean ΔQ ± S.D. (n = 3),[1],0.1388 ± 0.0056^h mC
same,"binding between H5 and glycan (avidity, from ΔQ)",[1],statistically lower binding
same,Predicted to Bind H5N1,H5N1,No
Neu5Acα2-6[Galβ1-4GlcNAcβ1-3]2β-SpNH-LC-LC-Biotin [6′S-Di-LN],Predicted to Bind H5N1,H5N1,No
Neu5Acα2-8Neu5Acα2-8Neu5Acα2-3Galβ1-4Glcβ-SpNH-LC-LC-Biotin [GT3],Mean ΔQ ± S.D. (n = 3),[3],0.2881 ± 0.0172^f mC
same,"binding between H5 and glycan (avidity, from ΔQ)",[3],statistically lower binding
same,Predicted to Bind H5N1,H5N1,No
